According to a melting point compilation (Tetko et al.):

| melting point | Structure (SMILES) |
| --- | --- |
| 85 to 86 °C | BrCCOc1cccc2c1OCCO2 |
| 120 to 123 °C | Cn1nc(C2CC2)cc1N |
| 49 °C | CCCCCCCCCCCCCCCCCN |
| 290 to 292 °C | O=C(O)c1n[nH]c2ccc(Br)cc12 |
| 201 °C | COc1ccc2cc(-c3ccn[nH]3)ccc2c1 |
| 128 °C | COc1ccccc1-c1ccc(C=NO)o1 |
| 58 °C | C[Si](C)(C)C#Cc1cccc(C#C[Si](C)(C)C)c1 |
| 137 °C | Nc1ccc(Cl)cn1 |
| -88 °C | C=CC#CC=C |
| 125 °C | CC12CCC(=O)N1C(c1ccccc1)CO2 (stereo not given) |
| 236 °C | OC1CC(O)C(O)C(O)C1O (stereo not given) |
| -44 °C | CCCCCCCCC1CCCC1 |
| 17 °C | CCCCCC#CCC(=O)O |
| 78 to 81 °C | Cc1onc(-c2c(F)cccc2Cl)c1C#N |
| 93.5 °C | c1cc2c(cc1OC1OCC3C(c4ccc5c(c4)OCO5)OCC13)OCO2 (stereo not given) |
| 86 to 88 °C | CCOC(=O)c1csnn1 |
| 101 °C | CCN(CC)CCNc1ccc(CO)c2sc3ccccc3c(=O)c12 |
| 51 to 54 °C | CC(C)(C)OC(=O)NCc1ccc(Br)s1 |
| 27 °C | CCN(CC)c1nc(Cl)nc(N(CC)CC)n1 |
| 62 to 66 °C | COC(=O)c1sccc1S(=O)(=O)Cl |
| 41 °C | Oc1cc(F)c(F)cc1F |
| 320 °C | CC(C)(C)c1nc2ccccc2[nH]1 |
| 92.5 °C | O=C(NCCO[N+](=O)[O-])c1cccnc1 |
| 186 °C | O=[N+]([O-])c1ccc(O)c(-c2cc([N+](=O)[O-])ccc2O)c1 |

| melting point | Structure (SMILES) |
| --- | --- |
| 147 °C | CCC(Cc1c(I)cc(I)c(O)c1I)C(=O)O (stereo not given) |
| 58 °C | O=C=Nc1ccc2sccc2c1 |
| 115 to 117 °C | CCSc1nc(N)nc(C(C)C)n1 |
| 121 to 122 °C | O=S(=O)(Cl)c1cc(Br)cc2c1OCC2 |
| 126 to 128 °C | Clc1ncnc2c1cnn2-c1ccccc1 |
| 82 °C | COc1ccc(OC)c(C#N)c1 |
| 59 to 64 °C | O=C=NC1CCC(N=C=O)CC1 (stereo not given) |
| 194 °C | CS(=O)(=O)Nc1ccc(C#N)cc1 |
| 14.2 °C | Cc1cc(F)ccc1N |
| 37 to 40 °C | COc1ccc(CO)c(OC)c1 |
| 160 to 162 °C | COC(=O)C1=C(C)NC(=O)C1CC(=O)O (stereo not given) |
| -65 °C | CCCCOCCCN |
| 127 °C | CCCCOc1ccc(-c2nnc3n2NC(c2ccco2)S3)cc1 (stereo not given) |
| 78 °C | O=C1CCC2(c3ccccc3)OCC(c3ccccc3)N12 (stereo not given) |
| 68 °C | CC(O)c1cccc(N)c1 (stereo not given) |
| 66 °C | Nc1cc(F)c(C(F)(F)F)c(F)c1 |
| 92 to 95 °C | O=[N+]([O-])c1ccc(O)cc1F |
| 69 °C | Cc1ccc(Oc2ccc([N+](=O)[O-])cc2)cc1 |
| 84.5 °C | NC(=O)c1ccc(F)c(C(F)(F)F)c1 |
| 150 to 152 °C | O=Cc1cccn1-c1cc(Cl)cc(Cl)c1 |
| 258 to 262 °C | C[C@@]1(CO)N[C@H](C(=O)O)CC2c3ccccc3NC21 (stereo not given in full) |
| 187 to 189 °C | O=S(=O)(c1ccc(N=C=S)cc1)c1ccc(N=C=S)cc1 |
| 92 °C | CC1CCC(C)(C(=O)NNc2ccccc2)C1(C)C (stereo not given) |
| 174 to 178 °C | O=C(O)CNC(=O)OCC1c2ccccc2-c2ccccc21 |

| melting point | Structure (SMILES) |
| --- | --- |
| 166 °C | O=C1C=C(NCc2ccncc2)C(=O)c2ccccc21 |
| 32.3 °C | Cc1cccc(C)c2cc(C(C)C)cc1-2 |
| 118 to 119 °C | Cc1ccc(C)c(C(=O)CC(C)(C)C(=O)O)c1 |
| 173 °C | C=C1C(C)CCC2(C)C3=C(C(=O)C4(CC4C)C(OC(C)=O)C3=O)C(OC(C)=O)C(OC(C)=O)C12 (stereo not given) |
| 240 °C | Clc1nc(Cl)nc(Oc2cc(Oc3nc(Cl)nc(Cl)n3)cc(Oc3nc(Cl)nc(Cl)n3)c2)n1 |
| 80 to 82 °C | COc1ccc(-n2ncc(C=O)c2C)cc1 |
| 196 °C | COc1ccccc1C1Nn2c(nnc2-c2ccccc2)S1 (stereo not given) |
| 143 °C | CCCCc1ccc(NC(=O)Oc2ccc(OC)cc2)cc1 |
| 206 °C | O=C1c2ccccc2C(=O)c2cc(Br)ccc21 |
| -50 °C | ClC1CCCC1 |
| 167 to 169 °C | CC12CCC(/C(=C/Nc3ccc(Cl)cc3)C1=O)C2(C)C (stereo not given) |
| 185 °C | N=c1sc(C(=O)c2cccs2)nn1-c1cccc(C(F)(F)F)c1 |
| -6 °C | Cn1ccnc1 |
| 312 °C | O=C(Nc1ccc([N+](=O)[O-])cc1)Nc1ccc([N+](=O)[O-])cc1 |
| 242 to 245 °C | CCOC(=O)c1cn[nH]c1NC(=O)Nc1ccccc1 |
| 220 °C | Nc1nn2c(C(F)(F)F)cc(-c3cccs3)nc2c1/N=N/c1ccc(F)cc1 |
| 55 °C | O=Cc1ccc(-c2cccnc2)cc1 |
| 90 °C | CCCCCCCCC(O)C(O)CCCCCCCC(=O)O (stereo not given) |
| 73 to 75 °C | COc1ccc(Oc2ccc(C(F)(F)F)cc2N)cc1 |
| 87 to 89 °C | N#CCC(=O)N1CCOCC1 |
| 211 to 213 °C | COC(=O)C1=C(N)Oc2cc(C)n(CCc3ccccc3)c(=O)c2C1c1ccc(OC)cc1 (stereo not given) |
| 43 °C | O=[N+]([O-])c1ccc(Br)c(C(F)(F)F)c1 |
| 247 °C | O=C(O)c1cccc2c1Cc1ccccc1-2 |
| 102 to 104 °C | Cc1ccc(Sc2ncccc2C(=O)Cl)cc1 |

| melting point | Structure (SMILES) |
| --- | --- |
| 232 °C | C[Si](C)(C)NC(=O)N[Si](C)(C)C |
| 116 to 118 °C | O=C(Cl)c1cnn2ccccc12 |
| 217 to 222 °C | O=C1C(c2ccccc2)=C(c2ccccc2)C(c2ccccc2)=C1c1ccccc1 |
| 179 °C | COc1cc(OC)nc(NC(=O)NS(=O)(=O)N(C)S(C)(=O)=O)n1 |
| -31 °C | c1ccc(C2CC2)cc1 |
| 74 °C | COc1ccc(C(=O)OC(COc2ccc(C=CC(=O)c3ccccc3)cc2)COc2ccc(C(=O)C=Cc3ccccc3)cc2)cc1 (stereo not given) |
| 51 °C | COC(=O)CCc1cccc(CCC(=O)OC)c1 |
| 121 °C | COc1cc(C(=O)N2CCOCC2)cc(OC)c1OC |
| 65 °C | Cc1cc(C)c(N)c(I)c1 |
| 236 to 237 °C | CC(=O)Nc1ccc(-c2ccc(/N=N/c3ccccc3)cc2)cc1 |
| 124 °C | Oc1ccc(Br)c2cccnc12 |
| 58.5 °C | ClCC(Cl)C(Cl)=C(Cl)C(Cl)CCl (stereo not given) |
| 61 °C | Nc1cnccc1Cl |
| 180 °C | O=C1OC(c2ccccc2)=NC1=Cc1ccc(Cl)cc1Cl |
| 47 °C | O=[N+]([O-])c1c(F)ccc(Cl)c1F |
| 125 °C | CC(=O)NC1C(O)OC(CO)C(O)C1OC(C)C(=O)O (stereo not given) |
| 140 to 142 °C | CC(C)CCCC(C)C1CCC2C3CC(=O)C4CC(O)CCC4(C)C3CCC12C (stereo not given) |
| 265 to 267 °C | O=C(O)c1cccc2c1-c1ccc(I)cc1C2 |
| 19 °C | Clc1cc(Br)ccn1 |
| 132 °C | COc1cc(CCn2cccc2C(=O)O)cc(OC)c1OC |
| 88 °C | Fc1cnccc1I |
| 179 to 182 °C | COc1ccc(C=CNNc2nc(C)cc(C)n2)cc1 |
| 238 to 240 °C | Cc1cc(O)c(C(c2ccc([N+](=O)[O-])cc2)c2c(O)cc(C)oc2=O)c(=O)o1 |
| 80 °C | N#CCc1ccc(OCc2ccccc2)c(OCc2ccccc2)c1 |

| melting point | Structure (SMILES) |
| --- | --- |
| 72.3 °C | O=C(/C=C/c1ccc(Cl)cc1Cl)c1ccccc1 |
| 120 °C | Cc1ccc(Oc2ccc(Br)cc2)nn1 |
| 54 to 59 °C | CCOc1ccc(CO)cc1OC |
| 230 to 232 °C | CC(=O)c1cc(C#N)c(=O)[nH]c1C |
| 47.5 °C | O=Cc1ccnc(Cl)c1 |
| 116 to 119 °C | Brc1cnc2c(c1)OCCN2 |
| 138 °C | CC(=O)NC(CC(=O)O)C(=O)O (stereo not given) |
| 170 °C | CCCCOC(=O)C1=C(C)NC(=O)NC1c1ccco1 (stereo not given) |
| -50 °C | CC(O)CNCCN (stereo not given) |
| 129 to 131 °C | COc1cc(Br)cc(C=O)c1O |
| 148 °C | CC12CCCC1C1CCC3CC(OCc4ccccc4)CCC3(C)C1CC2 (stereo not given) |
| 33.5 °C | O=C(OCCOCCOC(=O)c1ccccc1)c1ccccc1 |
| 227 to 229 °C | CC1(C)C2CCC(C2)C12COC(=O)N2 (single isomer, unassigned; (-)) |
| 150 to 151 °C | NC(=NO)c1ccc2ccccc2c1 |
| 45 °C | CCCCCCCOc1ccc(N)cc1 |
| 77 °C | CC(=O)Oc1nn(-c2ccc(Br)cc2)cc1Br |
| 180 °C | Cc1ccc(CNC(=O)c2cc([N+](=O)[O-])cc([N+](=O)[O-])c2)c(C)c1 |
| 216 °C | Nc1ccc(O)c2c1C(=O)c1ccccc1C2=O |
| -4 °C | OC(CCl)CCl |
| 76 °C | CC(C)COC(=O)c1ccc(O)cc1 |
| 160 °C | O=C(C[N+](=O)[O-])c1cccc(C(=O)C[N+](=O)[O-])c1 |
| 81.5 °C | CCC(C(=O)O)C1(O)CCCCC1 (stereo not given) |

| Structure (SMILES) | melting point |
| --- | --- |
| ON=Cc1cccnc1 | 150 °C |
| Ic1ccc(-c2ccc(I)cc2)cc1 | 207 °C |
| CC(=O)OC1CCC2(C)C(CC(=O)C3C2CCC2(C)C(OC(=O)c4ccccc4)CCC32)C1 (stereo not given) | 175 °C |
| O=C(c1ccccc1)C(F)(F)F | -40 °C |
| CCCCC(CC)COC(=O)c1ccc(C(=O)OCC(CC)CCCC)cc1 (stereo not given) | 30 to 34 °C |
| Fc1cc2c(cc1F)Oc1cc(Cl)c(Cl)cc1O2 | 223 °C |
| CC(C)NC(C)C | -61 °C |
| Clc1cc(Cl)cc(Br)c1 | 83 °C |
| COc1cc(OC)nc(NC(=O)NS(=O)(=O)c2cc(NC=O)ccc2C(=O)N(C)C)n1 | 194 °C |
| CCC(=O)Nc1ccccc1 | 106 °C |
| COc1cc(C=C(C)[N+](=O)[O-])cc(OC)c1 | 87 to 89 °C |
| CON(C)C(=O)Nc1ccc(Cl)cc1 | 81.5 °C |
